From PubChem BioAssay (NCI)
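48-hour exposure; five concentrations; linearly interpolated endpoints. Here, GI50 denotes the concentration required for 50% inhibition of growth. At the TGI there is no net growth.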

Columns and labels:
Experiment in all cases: DTP human tumour cell line panel, 48 h
[1] = system: SNB-75 CNS
[2] = system: HCT-15 colon
[3] = system: SK-OV-3 ovarian
[4] = system: KM12 colon
[5] = system: EKVX NSCLC
[6] = system: IGROV1 ovarian
[7] = system: SK-MEL-5 melanoma
[8] = system: UO-31 renal
[9] = system: OVCAR-8 ovarian
[10] = system: K-562 leukemia
[11] = system: MDA-MB-231 breast
[12] = system: HL-60(TB) leukemia
[13] = system: A549 NSCLC
[14] = system: MOLT-4 leukemia
[15] = system: UACC-62 melanoma
[16] = system: SN12C renal
[17] = system: SK-MEL-28 melanoma
[18] = system: CCRF-CEM leukemia
[19] = system: NCI-H460 lung
[20] = system: HT29 colon
[21] = system: HS 578T breast
[22] = system: NCI-H226 lung
[23] = system: MDA-MB-435
[24] = system: SF-539 CNS
[25] = system: NCI-H23 lung
[26] = system: HCC-2998 colon
[27] = system: MCF7 breast
[28] = system: OVCAR-3 ovarian
[29] = system: HCT-116 colon
[30] = system: T-47D breast
[31] = system: UACC-257 melanoma
[32] = system: PC-3 prostate
[33] = system: SF-268 CNS
[34] = system: DU-145 prostate
[35] = system: TK-10 renal
[36] = system: NCI/ADR-RES ovarian
[37] = system: SK-MEL-2 melanoma
[38] = system: A498 renal
[39] = system: SNB-19 CNS
[40] = system: HOP-92 NSCLC
[41] = system: MALME-3M melanoma
[42] = system: OVCAR-4 ovarian
[43] = system: U251 CNS
[44] = system: SW-620 colon
[45] = system: BT-549 breast
[46] = system: COLO 205 colon
[47] = system: NCI-H522 lung
[48] = system: 786-0 renal
[49] = system: RXF 393 renal
[50] = system: SR leukemia
[51] = system: SF-295 CNS
[52] = system: OVCAR-5 ovarian
[53] = system: ACHN renal
[54] = system: HOP-62 NSCLC
[55] = system: CAKI-1 renal
[56] = system: RPMI-8226 leukemia
[57] = system: M14 melanoma

In the case of `NS(=O)(=O)c1ccc(Nc2nc(Nc3ccccc3)nc(-n3nc(-c4ccccc4)cc3-c3ccccc3)n2)cc1`, the GI50 [1] was 4.61 µM, the TGI [1] was over 100 µM and the GI50 [2] was 3.08 µM. The TGI [2] was 11.2 µM, the GI50 [3] was 5.37 µM and the TGI [3] was over 100 µM. The GI50 [4] was 2.77 µM, the TGI [4] was 8.2 µM and the GI50 [5] was 2.96 µM. The TGI [5] was 17.4 µM, the GI50 [6] was 2.72 µM and the TGI [6] was 11.4 µM. The GI50 [7] was 2.33 µM, the TGI [7] was 5.54 µM and the GI50 [8] was 2.38 µM. The TGI [8] was 10 µM, the GI50 [9] was 3.22 µM and the TGI [9] was 16 µM. The GI50 [10] was 2.62 µM, the TGI [10] was 10.8 µM and the GI50 [11] was 1.81 µM. The TGI [11] was 3.85 µM, the GI50 [12] was 2.24 µM and the TGI [12] was 8.26 µM. For the same molecule, the GI50 [13] was 3.18 µM, the TGI [13] was 17.9 µM and the GI50 [14] was 1.51 µM. For the same molecule, the TGI [14] was 6.47 µM, the GI50 [15] was 1.81 µM and the TGI [15] was 3.76 µM. For the same molecule, the GI50 [16] was 1.47 µM, the TGI [16] was 2.88 µM and the GI50 [17] was 3.87 µM. The TGI [17] was 16.9 µM, the GI50 [18] was 2.94 µM and the TGI [18] was over 100 µM. It also gave a GI50 [19] of 2.07 µM, a TGI [19] of 4.66 µM and a GI50 [20] of 2.38 µM. It also gave a TGI [20] of 5.48 µM, a GI50 [21] of 4.31 µM and a TGI [21] of 62.7 µM. For the same molecule, the GI50 [22] was 2.52 µM, the TGI [22] was 11 µM and the GI50 [23] was 3.32 µM. It also gave a TGI [23] of 12.9 µM, a GI50 [24] of 2.66 µM and a TGI [24] of 10.3 µM. The GI50 [25] was 2.84 µM, the TGI [25] was 9.12 µM and the GI50 [26] was 2.98 µM. It also gave a TGI [26] of 6.84 µM, a GI50 [27] of 2.27 µM and a TGI [27] of 6.61 µM. For the same molecule, the GI50 [28] was 2.24 µM, the TGI [28] was 4.97 µM and the GI50 [29] was 1.74 µM. It also gave a TGI [29] of 3.39 µM, a GI50 [30] of 2.96 µM and a TGI [30] of 13.2 µM. The GI50 [31] was 3.26 µM, the TGI [31] was 23.3 µM and the GI50 [32] was 2.37 µM. For the same molecule, the TGI [32] was 7.89 µM, the GI50 [33] was 3.97 µM and the TGI [33] was over 100 µM. The GI50 [34] was 3.16 µM, the TGI [34] was 13 µM and the GI50 [35] was 3.87 µM. It also gave a TGI [35] of 8.93 µM, a GI50 [36] of 2.93 µM and a TGI [36] of 11 µM. The GI50 [37] was 2.39 µM, the TGI [37] was 6.95 µM and the GI50 [38] was 3.34 µM. The TGI [38] was 8.08 µM, the GI50 [39] was 3.43 µM and the TGI [39] was 20.9 µM. It also gave a GI50 [40] of 2.16 µM, a TGI [40] of 6.18 µM and a GI50 [41] of 2.43 µM. It also gave a TGI [41] of 7.09 µM, a GI50 [42] of 2.77 µM and a TGI [42] of 9.32 µM. For the same molecule, the GI50 [43] was 2.91 µM, the TGI [43] was 10.3 µM and the GI50 [44] was 3.52 µM. It also gave a TGI [44] of 32.1 µM, a GI50 [45] of 2.24 µM and a TGI [45] of 5.54 µM. For the same molecule, the GI50 [46] was 1.78 µM, the TGI [46] was 3.27 µM and the GI50 [47] was 2.29 µM. For the same molecule, the TGI [47] was 7.39 µM, the GI50 [48] was 3.09 µM and the TGI [48] was 10.6 µM. It also gave a GI50 [49] of 1.99 µM, a TGI [49] of 5.23 µM and a GI50 [50] of 1.94 µM. It also gave a TGI [50] of 5.94 µM, a GI50 [51] of 3.02 µM and a TGI [51] of 10.5 µM. It also gave a GI50 [52] of 3.34 µM, a TGI [52] of 14.3 µM and a GI50 [53] of 2.59 µM. For the same molecule, the TGI [53] was 9.95 µM, the GI50 [54] was 3.29 µM and the TGI [54] was 12.4 µM. It also gave a GI50 [55] of 2.45 µM, a TGI [55] of 9.55 µM and a GI50 [56] of 2.49 µM. It also gave a TGI [56] of 8.69 µM, a GI50 [57] of 3.22 µM and a TGI [57] of 12.5 µM.
